Measured values published in publication PMC7233811, “Small molecule inhibits T-cell acute lymphoblastic leukaemia oncogenic interaction through conformational modulation of LMO2” (Oncotarget, 2020).
pKd: −log10 of the molar value.

Experiments:
[1] = molecular target: T1, LMO2 (LIM only protein 2) (Homo sapiens, UniProt P25791); assay: microscale thermophoresis (NT647-labelled protein); supported by STD-NMR, SAXS and HTRF PPI inhibition (IC50 […]); type: binding
T1 construct: tandem LIM-domain construct of LMO2 fused to the LDB1^LID (FLINC2); with LDB1 LID (fused)
T1 sequence (P25791 30-153 limits assumed): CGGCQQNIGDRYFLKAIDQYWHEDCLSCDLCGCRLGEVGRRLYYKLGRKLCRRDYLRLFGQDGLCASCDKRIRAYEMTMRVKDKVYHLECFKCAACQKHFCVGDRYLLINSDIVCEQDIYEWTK
T1 sequence (Q86U70 336-375 partner limits assumed): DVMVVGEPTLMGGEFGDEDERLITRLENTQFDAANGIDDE

[2] = molecular target: SCL/E2A complex (Homo sapiens) (UniProt P17542); assay: given as Ka; settings: cited from earlier work
SCL/E2A complex (Homo sapiens), sequence (P17542 whole entry, chain 1 of 2): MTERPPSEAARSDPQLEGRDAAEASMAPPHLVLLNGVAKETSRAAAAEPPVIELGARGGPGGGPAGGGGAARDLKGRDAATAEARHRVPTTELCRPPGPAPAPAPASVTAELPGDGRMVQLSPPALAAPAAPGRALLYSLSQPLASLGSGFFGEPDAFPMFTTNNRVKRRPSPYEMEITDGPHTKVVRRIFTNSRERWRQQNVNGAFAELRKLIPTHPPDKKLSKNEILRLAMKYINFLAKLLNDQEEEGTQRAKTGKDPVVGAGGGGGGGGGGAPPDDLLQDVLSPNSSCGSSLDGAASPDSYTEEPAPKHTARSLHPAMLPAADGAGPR
SCL/E2A complex (Homo sapiens), sequence (P15923 whole entry, chain 2 of 2, further chain): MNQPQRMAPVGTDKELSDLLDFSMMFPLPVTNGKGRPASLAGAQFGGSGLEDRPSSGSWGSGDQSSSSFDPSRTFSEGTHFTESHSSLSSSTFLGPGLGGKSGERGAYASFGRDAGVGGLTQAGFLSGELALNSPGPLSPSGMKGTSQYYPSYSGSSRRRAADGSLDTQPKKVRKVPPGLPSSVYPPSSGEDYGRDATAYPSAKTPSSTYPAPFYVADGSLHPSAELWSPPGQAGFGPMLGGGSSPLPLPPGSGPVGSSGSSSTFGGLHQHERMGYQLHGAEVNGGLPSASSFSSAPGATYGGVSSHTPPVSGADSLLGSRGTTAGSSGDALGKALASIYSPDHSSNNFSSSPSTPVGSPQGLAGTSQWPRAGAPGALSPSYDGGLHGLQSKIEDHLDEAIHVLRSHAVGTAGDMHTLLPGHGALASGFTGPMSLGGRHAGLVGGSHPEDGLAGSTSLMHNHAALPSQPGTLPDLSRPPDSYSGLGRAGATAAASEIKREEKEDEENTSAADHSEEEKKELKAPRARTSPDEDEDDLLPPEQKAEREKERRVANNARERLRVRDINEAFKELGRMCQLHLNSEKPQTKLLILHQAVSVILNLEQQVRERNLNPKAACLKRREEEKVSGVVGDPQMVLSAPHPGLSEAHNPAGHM

LMO2, sequence (P25791 whole entry, the tested form may be a part): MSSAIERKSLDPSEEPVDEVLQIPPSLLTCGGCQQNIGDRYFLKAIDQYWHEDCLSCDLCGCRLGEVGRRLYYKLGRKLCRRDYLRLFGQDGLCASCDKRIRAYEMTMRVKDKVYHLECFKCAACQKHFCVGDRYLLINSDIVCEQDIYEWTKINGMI

Row | pKd [1] | Compound | pKd [2]
1 | 5.92 | Cc1cc(C)cc(C2(C(=O)N3CCOCC(Cc4ccc5nccn5c4)C3)CCOCC2)c1 (centres unmarked) [3K7] | –
2 | – | LMO2 (from UniProt P25791) | 8.26
